From patent US20160338928A1, “SKIN ENGAGING MEMBER COMPRISING A CYCLOHEXANECARBOXAMIDE DERIVATIVE” (The Gillette Company, priority 2015, published 2016)

Key:
[1] = concentration where the cooling effect could be clearly recognized; reported by Emberger and Hopp 1987; cited from earlier work
[2] = molecular target: T1, human TRPM8 (Homo sapiens, UniProt Q7Z2W7); assay: TRPM8 activation, FLIPR calcium flux in HEK cells stably transfected with human TRPM8; format: cell-based; conditions: amino acid derived side chain (alanine) in R (28) and S (776) configuration
T1 construct: expressed in transfected cells
T1 sequence (Q7Z2W7 whole entry): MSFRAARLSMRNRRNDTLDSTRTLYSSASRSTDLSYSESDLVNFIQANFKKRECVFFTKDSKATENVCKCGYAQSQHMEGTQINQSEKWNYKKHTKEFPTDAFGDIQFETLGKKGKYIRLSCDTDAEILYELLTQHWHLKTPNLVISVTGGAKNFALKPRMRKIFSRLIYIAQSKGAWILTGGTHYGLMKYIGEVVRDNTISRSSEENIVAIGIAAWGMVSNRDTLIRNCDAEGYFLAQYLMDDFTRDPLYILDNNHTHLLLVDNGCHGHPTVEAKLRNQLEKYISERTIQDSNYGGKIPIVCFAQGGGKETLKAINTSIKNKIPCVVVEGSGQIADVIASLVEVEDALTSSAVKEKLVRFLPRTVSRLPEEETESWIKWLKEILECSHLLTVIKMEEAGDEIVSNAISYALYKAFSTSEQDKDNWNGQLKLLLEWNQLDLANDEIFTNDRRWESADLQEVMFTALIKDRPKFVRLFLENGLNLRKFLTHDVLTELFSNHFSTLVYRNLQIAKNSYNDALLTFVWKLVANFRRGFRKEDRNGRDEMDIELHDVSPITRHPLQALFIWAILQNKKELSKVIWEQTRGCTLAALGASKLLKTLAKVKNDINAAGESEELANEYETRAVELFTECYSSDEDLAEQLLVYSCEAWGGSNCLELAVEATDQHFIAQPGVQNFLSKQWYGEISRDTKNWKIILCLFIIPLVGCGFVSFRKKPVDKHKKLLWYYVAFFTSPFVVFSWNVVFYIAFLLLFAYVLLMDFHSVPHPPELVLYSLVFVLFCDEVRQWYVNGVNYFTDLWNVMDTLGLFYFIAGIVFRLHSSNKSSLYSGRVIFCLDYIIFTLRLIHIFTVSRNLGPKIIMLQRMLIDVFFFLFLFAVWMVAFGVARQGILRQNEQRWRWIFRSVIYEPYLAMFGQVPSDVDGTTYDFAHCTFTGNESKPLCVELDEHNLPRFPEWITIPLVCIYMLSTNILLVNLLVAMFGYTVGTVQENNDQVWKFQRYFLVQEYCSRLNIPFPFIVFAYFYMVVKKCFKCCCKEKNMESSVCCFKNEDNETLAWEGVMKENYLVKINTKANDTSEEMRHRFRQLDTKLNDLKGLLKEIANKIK
Procedure: […] (human embryonic kidney) cells stably transfected with human TRPM8 are grown in 15 ml growth medium (high glucose DMEM (Dulbecco's Modification of Eagle's Medium) supplemented with 10% FBS (fetal bovine serum), 100 ug/ml penicillin/streptomycin, 5 μg/ml blasticindin, and 100 μg/ml zeocin) in a 75 CM^2 flask for 3 days at 37° C. in a mammalian cell culture incubator set at 5% CO2. Cells are detached with addition of 2 ml of trypsin-EDTA buffer (GIBCO® 25200, Invitrogen) for about 2-3 min. Trypsin is inactivated by addition of 8 ml growth medium. Cells are transferred to a 50 ml tube and centrifuged at 850 rpm for 3 minutes to remove medium. After centrifugation, a pellet of cells is formed in the bottom of the tube separating them from the supernatant solution. […] (Fluo-4 AM is a fluorescent dye used for quantifying cellular Ca^2+ concentrations in the 100 nM to 1 microM range.) At the end of 30 minutes, 45 ml of assay buffer (1×HBSS (Hank's Balanced Salt Solution), 20 mM HEPES (4-(2-Hydroxyethyl)-1-piperazineethanesulfonic acid)) is added to wash cells and the resulting mixture is then centrifuged at 850 rpm for 3 minutes to remove excess buffer and Fluo-4 AM calcium indicator. […]

Row | Compound | cooling threshold [1] | activity towards the receptor [2]
1 | CC(C)[C@@H]1CC[C@@H](C)C[C@@H]1O [Compound 1-neomenthol, 1-neomenthol] | about 3,000 ppb | 
2 | CC(C)[C@@H]1CC[C@@H](C)C[C@H]1C(=O)NCC(NC(=O)[C@@H](C)N)c1ccccc1 (some centres unmarked) [Compound 28] |  | excellent activity
3 | COc1ccc(NC(=O)[C@@H]2C[C@H](C)CC[C@H]2C(C)C)c(NC(=O)[C@H](C)N)c1 [Compound 776] |  | excellent activity
4 | CC(C)[C@@H]1CC[C@@H](C)C[C@H]1O [L-menthol] | about 800 ppb | 
5 | CC(C)[C@@H]1CC[C@@H](C)C[C@@H]1O [d-neomenthol] | about 25,000 ppb | 
